In patent US11390609B2, “Rho-associated protein kinase inhibitor, pharmaceutical composition comprising same, and preparation method and use thereof” (BEIJING TIDE PHARMACEUTICAL CO., LTD., priority 2017, dated 2022):

Biological target: ROCK1 (Homo sapiens (Human), UniProt Q13464)
Test: ROCK1 kinase IC50 assay (biological test method similar to the ROCK2 assay)
Format: biochemical
Experimental: The kinase IC50 was determined by a commercialized CISBIO kinase detection kit, HTRF KinEASE-STK S2 kit (62ST2PEC). ROCK2 (01-119) employed in the reaction was purchased from Carna Biosciences.
Before the assay, the following working solutions as needed were formulated with corresponding reagents according to the instruction of the kinase detection kit: 1×kinase buffer, 5×STK-52 substrate working solution (1.5 μM) and 5×ATP working solution (1.5 μM), 5×ROCK2 kinase working solution, 4×Streptavidin-XL665 working solution, and 4×STK-Ab-Cryptate 2 detection solution. Then the assay was performed according to the following procedure.
A solution of a compound at a concentration of 10000 nM was prepared with the 1×kinase buffer containing 2.5% DMSO. Gradient dilution of the solution of the compound was performed with the kinase buffer containing DMSO, so as to obtain solutions of a test compound at 9 different concentrations. In addition to wells of test compounds, a positive well (containing all the reagents except the compound) and a negative well (containing all the reagents except the test compound and kinase) were set. Except for the control wells (positive and negative wells), a solution of a test compound (4 μL) was added to each of the reaction wells, and a solution of 2.5% DMSO was added to the control wells. Then the substrate ([…], 2 μL. 5×STK-S2 substrate working solution) was added to each of the reaction wells. The 5×ROCK2 kinase working solution (2 μL, containing 1.4 ng ROCK2 kinase) was added to each of the reaction wells except for the negative well, the volume of which was made up with the 1×kinase buffer (2 μL). The 5×ATP working solution (2 μL) was added to each of the reaction wells, and the mixtures were incubated at room temperature for 2 hours. After the kinase reaction was complete, the 4×Streptavidin-XL665 working solution was added to each of the reaction wells, the solutions were mixed, followed by immediate addition of the 4×STK-Ab-Cryptate 2 detection solution (5 μL), and the mixtures were incubated at room temperature for 1 hour. The fluorescence signal was read on ENVISION (Perkinelmer) (excitation wavelength: 320 nm, and emission wavelength: 665 nm and 615 nm). The inhibitory rate in each well was calculated based on the fluorescence intensity value: ER (Emission Ratio)=(fluorescence intensity at 665 nm/fluorescence intensity at 615 nm); inhibitory rate=(ERpositive−ERtest compound)/(ERpositive−ERnegative)*100%. Curves were plotted and fitted to obtain the median inhibitory concentration (IC50) of each teat compound with the PRISM 5.0 software.
According to a biological test method similar to the above, the IC50 values of the compounds on ROCK1 were tested.

ROCK1, sequence (Q13464 whole entry, species assumed): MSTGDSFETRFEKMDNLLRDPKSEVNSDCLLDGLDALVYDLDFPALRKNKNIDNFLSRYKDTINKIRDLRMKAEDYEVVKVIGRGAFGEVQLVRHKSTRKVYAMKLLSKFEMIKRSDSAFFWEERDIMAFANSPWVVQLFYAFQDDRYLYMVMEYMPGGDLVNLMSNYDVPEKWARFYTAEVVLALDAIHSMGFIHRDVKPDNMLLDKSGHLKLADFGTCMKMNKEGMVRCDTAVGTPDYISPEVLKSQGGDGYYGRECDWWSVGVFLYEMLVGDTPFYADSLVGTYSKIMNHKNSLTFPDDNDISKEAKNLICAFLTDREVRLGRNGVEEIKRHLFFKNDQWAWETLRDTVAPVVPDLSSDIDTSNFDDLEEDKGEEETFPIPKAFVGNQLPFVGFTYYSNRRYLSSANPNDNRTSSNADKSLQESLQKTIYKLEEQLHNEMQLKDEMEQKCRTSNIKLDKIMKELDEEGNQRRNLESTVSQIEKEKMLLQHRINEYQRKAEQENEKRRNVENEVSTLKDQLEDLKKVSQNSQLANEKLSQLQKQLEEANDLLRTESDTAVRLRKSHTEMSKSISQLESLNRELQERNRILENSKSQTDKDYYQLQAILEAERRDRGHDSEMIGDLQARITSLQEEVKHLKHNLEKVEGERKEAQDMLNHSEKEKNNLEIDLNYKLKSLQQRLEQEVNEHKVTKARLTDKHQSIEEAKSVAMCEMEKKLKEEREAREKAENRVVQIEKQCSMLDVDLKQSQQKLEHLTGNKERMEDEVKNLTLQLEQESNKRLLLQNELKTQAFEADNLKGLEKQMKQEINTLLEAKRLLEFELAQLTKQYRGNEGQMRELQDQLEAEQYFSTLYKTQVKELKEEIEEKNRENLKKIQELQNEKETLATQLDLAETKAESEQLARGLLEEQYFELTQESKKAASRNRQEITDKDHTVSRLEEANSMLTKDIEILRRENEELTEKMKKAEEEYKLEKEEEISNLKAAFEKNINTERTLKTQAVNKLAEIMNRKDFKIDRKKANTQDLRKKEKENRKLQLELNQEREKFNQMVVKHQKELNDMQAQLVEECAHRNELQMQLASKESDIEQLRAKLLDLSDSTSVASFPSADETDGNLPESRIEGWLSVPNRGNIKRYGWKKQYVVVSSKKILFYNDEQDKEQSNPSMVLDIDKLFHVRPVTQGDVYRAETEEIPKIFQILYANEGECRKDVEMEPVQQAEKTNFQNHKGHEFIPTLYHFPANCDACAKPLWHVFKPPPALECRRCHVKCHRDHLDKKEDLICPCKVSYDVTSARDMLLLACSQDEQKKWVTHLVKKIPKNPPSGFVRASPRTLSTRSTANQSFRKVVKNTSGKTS

| Structure (SMILES) | IC50 [µM] |
| --- | --- |
| CN(C(=O)c1cc2ccc(-c3nccc(Nc4ccc(-c5cn[nH]c5)cc4)n3)cc2[nH]1)C1CCNC1 (centres unmarked) [TDI01345, 6-(4-((4-(1H-pyrazol-4-yl)phenyl)-amino)-pyrimidin-2-yl)-N-methyl-N-(pyrrolidin-3-yl)-1H-indole-2-carboxamide] | 3.91 |
| O=C(Nc1ccncc1Cl)c1cc2ccc(-c3nccc(Nc4ccc(-c5cn[nH]c5)cc4)n3)cc2[nH]1 [TDI01354, 6-(4-((4-(1H-pyrazol-4-yl)phenyl)-amino)-pyrimidin-2-yl)-N-(3-chloropyridin-4-yl)-1H-indole-2-caiboxamide] | > 10 |
| CC(C)NC(=O)c1cc2ccc(-c3nc(Nc4ccc(-c5cn[nH]c5)cc4)c4sccc4n3)cc2[nH]1 [TDI01370, 6-(4-((4-(1H-pyrazol-4-yl)phenyl)-amino)-thieno[3,2-d]pyrimidin-2-yl)-N-isopropyl-1H-indole-2-carboxamide] | 1.49 |
| CNC(=O)c1cc2ccc(-c3nc(Nc4ccc(-c5cn[nH]c5)cc4)c4sccc4n3)cc2[nH]1 [TDI01379, 6-(4-((4-(1H-pyrazol-4-yl)phenyl)-amino)thieno-[3.2-d]-pyrimidin-2-yl)-N-methyl-1H-indole-2-carboxamide] | > 10 |
| O=C(Nc1ccncc1)c1cc2ccc(-c3nccc(Nc4ccc(-c5cn[nH]c5)cc4)n3)cc2s1 [TDI01393] | > 10 |
| O=C(Nc1cccnc1)c1cc2ccc(-c3nccc(Nc4ccc(-c5cn[nH]c5)cc4)n3)cc2[nH]1 [TDI01397, 6-(4-((4-(1H-pyrazol-4-yl)phenyl)-amino)-pyrimidin-2-yl)-N-(pyridin-3-yl)-1H-indole-2-carboxamide] | 6 |
| N#CC1CN(C(=O)c2cc3ccc(-c4nccc(Nc5ccc(-c6cn[nH]c6)cc5)n4)cc3[nH]2)C1 [TDI01398, 1-(6-(4-((4-(1H-pyrazol-4-yl)phenyl)-amino)-pyrimidin-2-yl)-1H-indole-2-carbonyl)-azetidine-3-carbonitrile] | > 10 |
| CN(C(=O)c1cc2ccc(-c3nccc(Nc4ccc(-c5cn[nH]c5)cc4)n3)cc2[nH]1)C1CC(O)C1 (centres unmarked) [TDI01418, 6-(4-((4-(1H-pyrazol-4-yl)phenyl)amino)pyrimidin-2-yl)-N-(3-hydroxycyclobutyl)-N-methyl-1H-indole-2-carboxamide] | 5.38 |
| CN(C(=O)c1cc2ccc(-c3nccc(Nc4ccc(-c5cn[nH]c5)cc4)n3)cc2[nH]1)c1ccncc1 [TDI01421, 6-(4-((4-(1H-pyrazol-4-yl)phenyl)-amino)-pyrimidin-2-yl)-N-methyl-N-(pyridin-4-yl)-1H-indole-2-carboxamide] | 5.94 |
| O=C(NC1CCC1)c1cc2ccc(-c3nc(Nc4ccc(-c5cn[nH]c5)cc4)c4sccc4n3)cc2[nH]1 [TDI01424, 6-(4-((4-(1H-pyrazol-4-yl)phenyl)-amino)-thieno-[3,2-d]-pyrimidin-2-yl)-N-cyclobutyl-1H-indole-2-carboxamide] | 4.98 |
| CN(CC#N)C(=O)c1cc2ccc(-c3nccc(Nc4ccc(-c5cn[nH]c5)cc4)n3)cc2[nH]1 [TDI01430, 6-(4-((4-(1H-pyrazol-4-yl)phenyl)amino)pyrimidin-2-yl)-N-(cyanomethyl)-N-methyl-1H-indole-2-carboxamide] | > 10 |
| O=C(c1cc2ccc(-c3nccc(Nc4ccc(-c5cn[nH]c5)cc4)n3)cc2[nH]1)N1CC(C(F)(F)F)C1 [TDI01433, (6-(4-((4-(1H-pyrazol-4-yl)phenyl)amino)pyrimidin-2-yl)-1H-indol-2-yl)(3-(trifluoromethyl)azetidin-1-yl)methanone] | 1.97 |
| O=C(c1cc2ccc(-c3nccc(Nc4ccc(-c5cn[nH]c5)cc4)n3)cc2[nH]1)N1CC(F)(F)C1 [TDI01434, (6-(4-((4-(1H-pyrazol-4-yl)phenyl)ami-no)pyrimidin-2-yl)-1H-indol-2-yl)(3,3-difluoroazetidin-1-yl)methanone] | > 10 |
| O=C(c1cc2ccc(-c3nccc(Nc4ccc(-c5cn[nH]c5)cc4)n3)cc2[nH]1)N1CC(C(F)F)C1 [TDI01435, (6-(4-((4-(1H-pyrazol-4-yl)phenyl)amino)pyrimidin-2-yl)-1H-indol-2-yl)(3-(difluoromethyl)azetidin-1-yl)methanone] | 1.23 |
| Cn1c(C(=O)N2CC(F)(F)C2)cc2ccc(-c3nccc(Nc4ccc(-c5cn[nH]c5)cc4)n3)cc21 [TDI01470, (6-(4-((4-(1H-pyrazol-4-yl)phenyl)amino)pyrimidin-2-yl)-1-methyl-1H-indol-2-yl)(3,3-difluoroazetidin-1-yl)methanone] | > 10 |

Other lines, results leading:

| IC50 [µM] | Structure (SMILES) |
| --- | --- |
| 5.58 | CN(C(=O)c1cc2ccc(-c3nccc(Nc4ccc5[nH]ncc5c4)n3)cc2[nH]1)c1ccnnc1 [TDI01347, 6-(4-((1H-indazol-5-yl)amino)-pyrimidin-2-yl)-N-methyl-N-(pyridazin-4-yl)-1H-indole-2-carboxamide] |
| > 10 | CN(CC(F)(F)F)C(=O)c1cc2ccc(-c3nccc(Nc4ccc(-c5cn[nH]c5)cc4)n3)cc2[nH]1 [TDI01355, 6-(4-((4-(1H-pyrazol-4-yl)phenyl)-amino)-pyrimidin-2-yl)-N-methyl-N-(2,2,2-trifluoroethyl)-1H-indole-2-carboxamide] |
| > 10 | O=C(Nc1ccncc1)c1cc2ccc(-c3nccc(Nc4ccc(-c5cn[nH]c5)cc4)n3)cc2[nH]1 [TDI01363, 6-(4-((4-(1H-pyrazol-4-yl)phenyl)-amino)-pyrimidin-2-yl)-N-(pyridin-4-yl)-1H-indole-2-carboxamide] |
| > 10 | CN(C)C(=O)N1Cc2ccc(-c3nccc(Nc4ccc(-c5cn[nH]c5)cc4)n3)cc2C1 [TDI01366, 5-(4-((4-(1H-pyrazol-4-yl)phenyl)amino)pyrimidin-2-yl)-N,N-dimethylisoindoline-2-carboxamide] |
| 4.11 | CN(C(=O)c1cc2ccc(-c3nccc(Nc4ccc(-c5cn[nH]c5)cc4)n3)cc2[nH]1)C1CCOCC1 [TDI01381, 6-(4-((4-(1H-pyrazol-4-yl)phenyl)amino)pyrimidin-2-yl)-N-methyl-N-(tetrahydro-2H-pyran-4-yl)-1H-indole-2-carboxamide] |
| > 10 | CCNC(=O)N1Cc2ccc(-c3nccc(Nc4ccc(-c5cn[nH]c5)cc4)n3)cc2C1 [TDI01411, 5-(4-((4-(1H-pyrazol-4-yl)phenyl)amino)pyrimidin-2-yl)-N-ethylisoindoline-2-carboxamide] |
| 3.71 | CCN(CCO)C(=O)c1cc2ccc(-c3nccc(Nc4ccc(-c5cn[nH]c5)cc4)n3)cc2[nH]1 [TDI01415, 6-(4-((4-(1H-pyrazol-4-yl)phenyl)-amino)-pyrimidin-2-yl)-N-ethyl-N-(2-hydroxyethyl)-1H-indole-2-carboxamide] |
| 9.29 | CN(C(=O)c1cc2ccc(-c3nccc(Nc4ccc(-c5cn[nH]c5)cc4)n3)cc2[nH]1)C1CCC1 [TDI01420, 6-(4-((4-(1H-pyrazol-4-yl)phenyl)amino)pyrimidin-2-yl)-N-cyclobutyl-N-methyl-1H-indole-2-carboxamide] |
| > 10 | O=C(NC1CCOC1)c1cc2ccc(-c3nc(Nc4ccc(-c5cn[nH]c5)cc4)c4sccc4n3)cc2[nH]1 (centres unmarked) [TDI01423, 6-(4-((4-(1H-pyrazol-4-yl)phenyl)-amino)-thieno-[3,2-d]-pyrimidin-2-yl)-N-(tetrahydro-furan-3-yl)-1H-indole-2-carboxamide] |
| 2.94 | O=C(c1cc2ccc(-c3nccc(Nc4ccc(-c5cn[nH]c5)cc4)n3)cc2[nH]1)N1CCC2(CCNCC2)CC1 [TDI01425, (6-(4-((4-(1H-pyrazol-4-yl)phenyl)-amino)-pyrimidin-2-yl)-1H-indol-2-yl)(3,9-diazaspiro[5.5]undecan-3-yl)methanone] |
| > 10 | CN(CC(F)(F)F)C(=O)c1cc2ccc(-c3ncc(F)c(Nc4ccc(-c5cn[nH]c5)cc4)n3)cc2[nH]1 [TDI01426, 6-(4-((4-(1H-pyrazol-4-yl)phenyl)amino)-5-fluoropyrimidin-2-yl)-N-methyl-N-(2,2,2-trifluoroethyl)-1H-indole-2-carboxamide] |
| > 10 | CN(CCC#N)C(=O)c1cc2ccc(-c3nccc(Nc4ccc(-c5cn[nH]c5)cc4)n3)cc2[nH]1 [TDI01442, 6-(4-((4-(1H-pyrazol-4-yl)phenyl)amino)pyrimidin-2-yl)-N-(2-cyanoethyl)-N-methyl-1H-indole-2-carboxamide] |
| > 10 | O=C(N1Cc2ccc(-c3nccc(Nc4ccc(-c5cn[nH]c5)cc4)n3)cc2C1)N1CC(F)(F)C1 [TDI01467] |
| > 10 | CCN(CC)C(=O)c1cc2ccc(-c3ncc(OC)c(Nc4ccc(-c5cn[nH]c5)cc4)n3)cc2[nH]1 [TDI01823, 6-(4-((4-(1H-pyrazol-4-yl)phenyl)-amino)-5-methoxy-pyrimidin-2-yl)-N,N-diethyl-1H-indole-2-carboxamide] |
